For data set [1], the target named is T1, recombinant full-length WRN protein (1-1432) (Homo sapiens, UniProt Q14191).
T1 construct: recombinant full-length WRN protein (1-1432)
The experiment in a line: WRN unwinding activity, fluorogenic 384-well assay (Example A). Format: biochemical. Conditions: WRN unwinding activity, 4 hr; Table 2; read-out: 4 hr UNW pIC50 (converted). The procedure, abridged:
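200 pM enzyme (2× stock) preincubated with compound 4 h at ambient temperature, then 200 μM ATP and 12 nM quenched TAMRA-labelled dsDNA (2× stocks) added for 60 min; EDTA-quenched. Buffer 25 mM Tris pH 8.0, 5 mM NaCl, 2 mM MgCl2. Fluorescence at 525/598 nm; pIC50 from four-parameter fit.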

A short description of data set [2]: Cell culture media unbound percentage and stability by rapid equilibrium dialysis (Example C). It is filed as in vitro ADME. Particulars: bovine, cell assay medium (RPMI-1640 with 10% fetal bovine serum), pH 7.4, rapid equilibrium dialysis, 4 hours at 37° C., read-out: Cell Culture Media Binding (% unbound). The procedure, abridged: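 Compound spiked into cell culture medium at nominal 1 μM and dialysed against PBS (100 mM sodium phosphate + 150 mM NaCl, pH 7.4) by rapid equilibrium dialysis, triplicate, 4 h at 37° C with shaking. LC-MS/MS peak area ratios gave percent unbound (receiver/donor) and percent stability (240 min vs 0 min).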
Background: In equilibrium dialysis only unbound substance equilibrates across the membrane.

For data set [3], the system named is SW48 human colorectal cancer cells. The data set is described as follows: Calculated free drug potency in SW48 cell assay, corrected with media free fraction (Example C). Format: cell-based. Conditions: Homo sapiens, SW48, SW48 pCC50 corrected with measured free fraction in cell assay media. The procedure, abridged: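 Compound spiked at nominal 1 μM into cell assay medium and dialysed against PBS (100 mM sodium phosphate, 150 mM NaCl, pH 7.4) by rapid equilibrium dialysis, 4 h, 37 °C, shaking. Percent unbound from LC-MS/MS peak area ratios (240 min vs 0 min); cell assay concentrations corrected by this free fraction.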

The subject of data set [4] is SW48 human colorectal cancer cells (MSI-H cancer cells). The experiment in a line: SW48 cell viability, CellTiter-Glo, 120 hours (Example B). Conditions: Homo sapiens. For orientation: ATP-based viability assays read luminescence as a measure of living cells.
Setting [5] is: SW48, 120 h, read-out: SW48 pCC50, SW48 cell viability, 120 hours incubation (converted), Table 2.
Setting [6] is: SW48, read-out: SW48 pCC50, measured potency from Example B, as repeated in Table 3 (converted).

Read-outs that look alike come from different tables or passages of the source.

T1 sequence (Q14191 whole entry): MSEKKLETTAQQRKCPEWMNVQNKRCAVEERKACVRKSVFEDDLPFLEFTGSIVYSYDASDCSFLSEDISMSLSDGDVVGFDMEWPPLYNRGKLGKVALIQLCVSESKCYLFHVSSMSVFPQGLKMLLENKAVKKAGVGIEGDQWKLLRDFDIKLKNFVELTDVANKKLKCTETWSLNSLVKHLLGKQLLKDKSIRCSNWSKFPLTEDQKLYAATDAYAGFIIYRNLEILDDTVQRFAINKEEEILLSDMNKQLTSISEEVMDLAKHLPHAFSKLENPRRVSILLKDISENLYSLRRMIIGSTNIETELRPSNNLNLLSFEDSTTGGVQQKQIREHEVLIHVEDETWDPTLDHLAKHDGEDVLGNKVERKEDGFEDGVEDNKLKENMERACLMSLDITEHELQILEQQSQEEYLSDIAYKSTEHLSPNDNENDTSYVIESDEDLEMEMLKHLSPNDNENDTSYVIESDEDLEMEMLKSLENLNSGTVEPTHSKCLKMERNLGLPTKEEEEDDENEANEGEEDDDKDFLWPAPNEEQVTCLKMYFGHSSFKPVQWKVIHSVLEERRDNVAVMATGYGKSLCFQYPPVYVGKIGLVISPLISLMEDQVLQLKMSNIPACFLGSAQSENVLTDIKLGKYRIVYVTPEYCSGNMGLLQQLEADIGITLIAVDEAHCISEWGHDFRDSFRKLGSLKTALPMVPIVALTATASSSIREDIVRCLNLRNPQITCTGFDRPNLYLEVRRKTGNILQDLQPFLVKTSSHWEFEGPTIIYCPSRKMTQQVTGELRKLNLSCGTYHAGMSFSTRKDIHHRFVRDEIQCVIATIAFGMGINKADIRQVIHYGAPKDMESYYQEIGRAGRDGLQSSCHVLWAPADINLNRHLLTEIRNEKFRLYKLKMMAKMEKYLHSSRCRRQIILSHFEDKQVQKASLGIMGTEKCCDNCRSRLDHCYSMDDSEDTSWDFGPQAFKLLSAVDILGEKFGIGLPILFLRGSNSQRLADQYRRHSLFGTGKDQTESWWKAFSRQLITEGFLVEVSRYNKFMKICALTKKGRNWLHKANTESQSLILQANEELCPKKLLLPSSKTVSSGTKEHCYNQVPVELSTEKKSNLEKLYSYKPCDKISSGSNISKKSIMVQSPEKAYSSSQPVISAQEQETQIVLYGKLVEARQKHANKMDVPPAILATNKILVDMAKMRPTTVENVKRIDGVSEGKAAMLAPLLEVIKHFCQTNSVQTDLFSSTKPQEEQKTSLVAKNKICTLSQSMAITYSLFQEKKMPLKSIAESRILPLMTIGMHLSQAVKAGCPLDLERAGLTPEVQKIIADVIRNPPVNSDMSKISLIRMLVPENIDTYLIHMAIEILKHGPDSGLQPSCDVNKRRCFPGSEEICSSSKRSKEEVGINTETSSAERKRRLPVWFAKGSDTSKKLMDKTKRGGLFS

Regarding `Cc1nc2cc(S(=O)(=O)N(C)c3ccc([C@H]4C[C@@H](OCC5CCOCC5)C[C@@H](C(=O)Nc5ccc(C(F)(F)F)cc5F)[C@@H]4C(=O)O)cc3)ccc2n1C` (stereo in doubt) [Example 355, rel-(1R,2R,4R,6S)-2-((2-fluoro-4-(trifluoromethyl)phenyl)carbamoyl)-4-((tetrahydro-2H-pyran-4-yl)methoxy)-6-(4-((N,1,2-trimethyl-1H-benzo[d]imidazole)-5-sulfonamido)phenyl)cyclohexane-1-carboxylic acid], the IC50 in data set [1] is 3.98 nM. In data set [2], the fraction unbound at 4 h, 1 µM turned out to be 0.128. The results for the CC50 in data set [3], in data set [4] (setting [5]) and in data set [4] (setting [6]) were 12.9 nM, 100 nM and 100 nM, respectively.
`Cc1nc2cc(S(=O)(=O)N(C)c3ccc([C@@H]4C[C@@H](N5CCCC(F)(F)C5)C[C@H](C(=O)Nc5ccc(C(F)(F)F)cc5F)[C@H]4C(=O)O)cc3)ccc2n1C` (stereo in doubt) [Example 362, rel-(1R,2R,4S,6S)-4-(3,3-difluoropiperidin-1-yl)-2-((2-fluoro-4-(trifluoromethyl)phenyl)carbamoyl)-6-(4-((N,1,2-trimethyl-1H-benzo[d]imidazole)-5-sulfonamido)phenyl)cyclohexane-1-carboxylic acid]: in data set [1], the IC50 was 1580 nM. For the same compound, the fraction unbound at 4 h, 1 µM in data set [2] is 0.169. Moreover, the CC50 in data set [3] is 1700 nM; in data set [4] (setting [5]), 10000 nM.
Take `Cc1nc2cc(S(=O)(=O)N(C)c3ccc([C@H]4C[C@@H](OCC5(C)COC5)C[C@@H](C(=O)Nc5ccc(C(F)(F)F)cc5F)[C@@H]4C(=O)O)cc3)ccc2n1C` (stereo in doubt) [Example 367, rel-(1R,2R,4R,6S)-2-((2-fluoro-4-(trifluoromethyl)phenyl)carbamoyl)-4-((3-methyloxetan-3-yl)methoxy)-6-(4-((N,1,2-trimethyl-1H-benzo[d]imidazole)-5-sulfonamido)phenyl)cyclohexane-1-carboxylic acid]: in data set [1], the IC50 was 1.58 nM. Also, the fraction unbound at 4 h, 1 µM in data set [2] was determined as 0.145. For the same compound, the CC50 in data set [3] was 11.5 nM; in data set [4] (setting [5]), 79.4 nM; in data set [4] (setting [6]) it was 79.4 nM.
Consider `Cc1nc2cc(S(=O)(=O)N(C)c3ccc([C@H]4C[C@@H](N5CC[C@H](F)C5)C[C@@H](C(=O)Nc5ccc(C(F)(F)F)cc5F)[C@@H]4C(=O)O)cc3)ccc2n1C` (stereo in doubt) [Example 377, rel-(1R*,2R*,4R*,6S*)-2-((2-fluoro-4-(trifluoromethyl)phenyl)carbamoyl)-4-((S)-3-fluoropyrrolidin-1-yl)-6-(4-((N,1,2-trimethyl-1H-benzo[d]imidazole)-5-sulfonamido)phenyl)cyclohexane-1-carboxylic acid], for which the IC50 in data set [1] is 5.01 nM. For the same compound, the fraction unbound at 4 h, 1 µM in data set [2] worked out at 0.071. Also, the CC50 is 8.91 nM in data set [3], 126 nM in data set [4] (setting [5]) and 126 nM in data set [4] (setting [6]).
Take `Cc1nc2cc(S(=O)(=O)N(C)c3ccc([C@@H]4C[C@H](N5CC[C@H](F)C5)C[C@H](C(=O)Nc5ccc(C(F)(F)F)cc5F)[C@H]4C(=O)O)cc3)ccc2n1C` (stereo in doubt) [Example 378, rel-(1R*,2R*,4R*,6S*)-2-((2-fluoro-4-(trifluoromethyl)phenyl)carbamoyl)-4-((S)-3-fluoropyrrolidin-1-yl)-6-(4-((N,1,2-trimethyl-1H-benzo[d]imidazole)-5-sulfonamido)phenyl)cyclohexane-1-carboxylic acid]: in data set [1], the IC50 was 50.1 nM. In addition, the fraction unbound at 4 h, 1 µM in data set [2] worked out at 0.208. Also, the CC50 is 832 nM in data set [3], 3980 nM in data set [4] (setting [5]) and 3980 nM in data set [4] (setting [6]).
`Cc1nc2cc(S(=O)(=O)N(C)c3ccc([C@H]4C[C@H](N5CC[C@H](F)C5)C[C@@H](C(=O)Nc5ccc(C(F)(F)F)cc5F)[C@@H]4C(=O)O)cc3)ccc2n1C` (stereo in doubt) [Example 380, rel-(1R*,2R*,4S*,6S*)-2-((2-fluoro-4-(trifluoromethyl)phenyl)carbamoyl)-4-((S)-3-fluoropyrrolidin-1-yl)-6-(4-((N,1,2-trimethyl-1H-benzo[d]imidazole)-5-sulfonamido)phenyl)cyclohexane-1-carboxylic acid]: the IC50 in data set [1] was 39.8 nM. Also, in data set [2], the fraction unbound at 4 h, 1 µM came out at 0.0334. Moreover, the values for the CC50 in data set [3] and in data set [4] (setting [5]) were 331 nM and 10000 nM, respectively.
With `Cc1nc2cc(S(=O)(=O)N(C)c3ccc([C@@H]4C[C@H](N5CC[C@@H](F)C5)C[C@H](C(=O)Nc5ccc(C(F)(F)F)cc5F)[C@H]4C(=O)O)cc3)ccc2n1C` (stereo in doubt) [Example 381, rel-(1R*,2R*,4R*,6S*)-2-((2-fluoro-4-(trifluoromethyl)phenyl)carbamoyl)-4-((R)-3-fluoropyrrolidin-1-yl)-6-(4-((N,1,2-trimethyl-1H-benzo[d]imidazole)-5-sulfonamido)phenyl)cyclohexane-1-carboxylic acid], in data set [1], the IC50 is 79.4 nM. For the same compound, the fraction unbound at 4 h, 1 µM in data set [2] amounted to 0.308. The CC50 is 2450 nM in data set [3], 7940 nM in data set [4] (setting [5]) and 7940 nM in data set [4] (setting [6]).
For `Cc1nc2cc(S(=O)(=O)N(C)c3ccc([C@H]4C[C@@H](N5CC[C@@H](F)C5)C[C@@H](C(=O)Nc5ccc(C(F)(F)F)cc5F)[C@@H]4C(=O)O)cc3)ccc2n1C` (stereo in doubt) [Example 382, rel-(1R*,2R*,4R*,6S*)-2-((2-fluoro-4-(trifluoromethyl)phenyl)carbamoyl)-4-((R)-3-fluoropyrrolidin-1-yl)-6-(4-((N,1,2-trimethyl-1H-benzo[d]imidazole)-5-sulfonamido)phenyl)cyclohexane-1-carboxylic acid], in data set [1], the IC50 is 1.58 nM. Also, the fraction unbound at 4 h, 1 µM in data set [2] was 0.136. Also, the values for the CC50 in data set [3], in data set [4] (setting [5]) and in data set [4] (setting [6]) were 8.51 nM, 63.1 nM and 63.1 nM, respectively.
As for `Cc1nc2cc(S(=O)(=O)N(C)c3ccc([C@H]4C[C@H](N5CC[C@@H](F)C5)C[C@@H](C(=O)Nc5ccc(C(F)(F)F)cc5F)[C@@H]4C(=O)O)cc3)ccc2n1C` (stereo in doubt) [Example 383, rel-(1R*,2R*,4S*,6S*)-2-((2-fluoro-4-(trifluoromethyl)phenyl)carbamoyl)-4-((R)-3-fluoropyrrolidin-1-yl)-6-(4-((N,1,2-trimethyl-1H-benzo[d]imidazole)-5-sulfonamido)phenyl)cyclohexane-1-carboxylic acid], the IC50 in data set [1] was 7.94 nM. Besides, the fraction unbound at 4 h, 1 µM in data set [2] was found to be 0.0589. The values for the CC50 in data set [3], in data set [4] (setting [5]) and in data set [4] (setting [6]) were 468 nM, 7940 nM and 7940 nM, respectively.
For `Cc1cc(N(C)S(=O)(=O)c2ccc3c(c2)nc(C)n3C)ccc1[C@H]1CCC[C@@H](C(=O)Nc2ccc(C(F)(F)F)cc2F)[C@@H]1C(=O)O` (stereo in doubt) [Example 386, rel-(1R,2R,6S)-2-((2-fluoro-4-(trifluoromethyl)phenyl)carbamoyl)-6-(2-methyl-4-((N,1,2-trimethyl-1H-benzo[d]imidazole)-5-sulfonamido)phenyl)cyclohexane-1-carboxylic acid], the IC50 in data set [1] was 3.98 nM. Moreover, the fraction unbound at 4 h, 1 µM in data set [2] was determined as 0.1. Moreover, the CC50 in data set [3] is 200 nM; in data set [4] (setting [5]), 2000 nM; in data set [4] (setting [6]), 2000 nM.
For the compound `Cc1nc2cc(S(=O)(=O)N(C)c3ccc([C@H]4C[C@H]5COC[C@H]5[C@@H](C(=O)Nc5ccc(C(F)(F)F)cc5F)[C@@H]4C(=O)O)cc3)ccc2n1C` (stereo in doubt) [Example 392, rel-(3aR,4R,5R,6S,7aR)-4-((2-fluoro-4-(trifluoromethyl)phenyl)carbamoyl)-6-(4-((N,1,2-trimethyl-1H-benzo[d]imidazole)-5-sulfonamido)phenyl)octahydroisobenzofuran-5-carboxylic acid], the IC50 in data set [1] is 1.58 nM. Moreover, the fraction unbound at 4 h, 1 µM in data set [2] was determined as 0.0993. Also, the CC50 in data set [3] is 25.1 nM; in data set [4] (setting [5]), 251 nM; in data set [4] (setting [6]) it was 251 nM.
`O=C(O)[C@@H]1[C@@H](c2ccc(-c3cnsc3)cc2)CCC[C@H]1C(=O)Nc1ccc(C(F)(F)F)cc1F` [Example 16, (1R,2R,6S)-2-((2-fluoro-4-(trifluoromethyl)phenyl)carbamoyl)-6-(4-(isothiazol-4-yl)phenyl)cyclohexane-1-carboxylic acid]: the IC50 in data set [1] was 3.98 nM. Also, the fraction unbound at 4 h, 1 µM in data set [2] is 0.0499. For the same compound, the CC50 in data set [3] is 200 nM; in data set [4] (setting [5]) it was 3980 nM; in data set [4] (setting [6]), 3980 nM.

The record behind these values is patent publication US12662451B2, “Chemical compounds and uses thereof” (GLAXOSMITHKLINE INTELLECTUAL PROPERTY (NO.4) LIMITED, priority 2023, dated 2026).
